In patent US8263757B2, “Promiscuous HER-2/Neu CD4 T cell epitopes” (Dendreon Corporation, priority 2006, dated 2012):

Assays:
[1] = test system: T cell clone HER500.23c21; assay: Antigen-specific stimulation of T cell clone HER500.23c21 by protein antigens presented by autologous PBMC (IFNγ ELISA, IL-2 by HT-2 proliferation); format: cell-based, human; settings: autologous PBMC presentation, increasing doses of antigen; for IFNγ and IL-2 production by HER500.23c21 in response to antigen: 48 hours
Method: FIG. 1. T cell clone HER500.23c21 is HER-2/Neu specific. (A) HER500 (amino acids ▪ and BA7072 (HER500/GM-CSF fusion protein) ♦ specific IFNγ production by HER500.23c21 was measured using ELISA after autologous PBMC presentation of the antigens; background was also tested ▴. Assay was set up in triplicate in 96 well round bottom plates in complete IMDM media with 10% FBS. Autologous PBMCs were used at 2×10^5 cells/well and T cell clone HER500.23c21 was added at 1×10^5 cells/well. Antigens were at the final concentrations shown. Assay was incubated for 48 hours at 37° C. with 5% CO2 and supernatant was removed from wells to test for cytokine production. (A) IFNγ production. Data points shown represent the calculated pg/mL for each antigen concentration. (B) IL-2 production for the same assay was measured using HT-2 cell proliferation. Data points represent the mean CPM values for each antigen concentration.
Identification and Characterization of HER-2/neu specific T cell clones. Clones were screened for antigen specificity using autologous PBMC and antigen or autologous EBV-LcL and Her500 peptides. Stimulations were set up in 96 well round bottom plates in cRPMI+10% FBS media and incubated for 48 hours at 37° C. with 5% CO2. Additionally, clones were stained for CD4 and CD8 surface expression by flow cytometry.
Cytokine Production. To determine cytokine production in the antigen specific stimulation assays, after 48 hours, 200 μL of supernatant was pulled from cultures and tested for both IL-2 and IFNγ production. IL-2 production was measured using the IL-2 dependent line HT-2 (ATCC). HT-2 cells were grown in IMDM with 10% FBS and 100 uM NEAA, 1 mM Sodium Pyruvate, 2 mM L-glutamine, […], 50 U/mL Streptomycin, 20 mM HEPES and 20 uM 2-Mercaptoethanol (cIMDM+10% FBS) and fed twice a week with 20 ng/mL rIL-2. For the assay, 4 days after HT-2 cells were split, cells were washed with IMDM+10% FBS to remove all rIL-2, and cells were added to 96 well round bottom plates at 1×10^4 cells/well in cIMDM+10% FBS. Supernatants from antigen specific stimulation were added to wells and plates were incubated 24-30 hours at 37° C. The following day 1 μCi of ^3[H] TdR was added for the final 6 hours of the assay and plates were harvested to glass fiber filter mats and DNA incorporation of the radioisotope, or proliferative response, was determined by counts per minute using a liquid scintillation counter (PerkinElmer Life and Analytical Sciences, Inc. Boston, Mass.). IFNγ production was measured using anti-human IFNγ antibody pairs for ELISA (BD Pharmingen, San Diego, Calif.). […] 2M HCl was added to stop the reaction and plates were read for absorbance at 492 nm on a spectrophotometer. […]

[2] = test system: T cell clone HER500.23c21; assay: Minimal epitope: truncated HERp270-284 peptides presented by EBV LcL lines of diverse HLA-DRB1 alleles to HER500.23c21; format: cell-based, human; settings: presented by EBV LcL lines representing HLA-DRB1 alleles *0301, *0302, *1301 and *1402
Description: FIG. 5. Graphic depiction of IFNγ production by HER500.23c21 following exposure to peptides presented by EBV LcL lines of diverse HLA-DRb1 alleles. The peptides were 9-mers (SEQ ID NOS:3-9) within the HER-2/Neu peptide 270-284 (SEQ ID NO:2).
FIG. 6. Graphic depiction of IFNγ production by HER500.23c21 following exposure to peptides presented by EBV LcL lines of diverse HLA-DRb1 alleles. The peptides were 10- or 11-mers (SEQ ID NOs:12-15, 10, 1, 16-19 and 11, respectively) within the HER-2/Neu peptide 270-284.
Because of the clear response of HER500.23c21 to HER-2/Neu protein sequences, the specific epitope recognized by HER500.23c21 was mapped using peptides. HER500.23c21 was tested against a panel of 125 individual overlapping 15-mer peptides covering the HER-2/Neu protein sequences within HER500. Each peptide was used at 1 ug/ml with autologous EBV LCL cells as antigen presenting cells. […]
In this series of experiments, additional peptides derived from the HER-2/Neu protein were tested for their potential as promiscuous MHC Class II HER-2/neu epitopes. […] Supernatants were harvested and analyzed for IFNγ production using ELISA. […] Results of the IFNγ produced by clone HER500.23c21 in response to peptide and each HLA-DR allele are reported in pg/mL of IFNγ or as absorbance at 492 nm.

Substance	dose dependence of HER500.23c21 response to protein [1]	IFNγ and IL-2 production by HER500.23c21 in response to antigen [1]	Stimulation of HER500.23c21 [2]
BA7072: proprietary recombinant fusion protein: HER500 expressed as a fusion protein with hGM-CSF	dose dependent manner	specifically produced IFNγ and IL-2	
HER500: recombinant protein containing sequences from both the ECD and ICD of HER-2/neu; HER-2/neu portion of BA7072	dose dependent manner	specifically produced IFNγ and IL-2	
TYNTDTFESMP (HER-2p270-284 11-mer) [SEQ ID NO:11, 11-mer truncation of HERp270-284]			successful
VTYNTDTFESM (HER-2p270-284 11-mer) [SEQ ID NO:10, 11-mer truncation of HERp270-284]			successful
